Results reported in patent publication US9513294B2, “Megastokes amino-triazolyl-BODIPY compounds and applications to live neuron staining and human serum albumin FA1 drug site probing” (National University of Singapore, priority 2012, dated 2016).
Each block holds one molecule with its values, some of them ahead of it.

Columns and labels:
[1] = Absorbance and fluorescence emission spectra (SpectraMax M2); format: physicochemical; conditions: for λmax Absorp. (nm) / λmax Emission (nm): MKCA compound library; for λmax Absorp. (nm) / λmax Abs. (nm): absorbance maximum; for λmax Emission (nm) / λmax Em. (nm): fluorescence emission maximum; for λmax Abs. (nm) / λmax Em. (nm): MKAC compound library
In short: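 Absorbance and emission maxima measured on a SpectraMax M2 spectrophotometer, which also gave quantum yield data; analysis in GraphPrism.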

[2] = Quantum yield measurements versus Acridine Yellow in EtOH; format: physicochemical; conditions: for φ (%): quantum yield; for φ (quantum yield): excitation 460 nm
In short: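 Fluorescence quantum yield is relative to Acridine Yellow in EtOH (Φ 0.47), with excitation at 460 nm. Integrated emission at 510–700 nm was corrected for absorbance at the excitation wavelength and for solvent refractive index.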

SMILES: Nc1ccc(C2=C3C=CC(N4CCCCC4)=[N+]3[B-](F)(F)n3c2ccc3-n2cc(CO)nn2)cc1 [BDC-70]
λmax Absorp. ([1]; BDC library, Table 2): 474 nm
λmax Emission ([1]; BDC library, Table 2): 586 nm
φ (quantum yield) ([2]; BDC library, Table 2): 0.13%

SMILES: CC(=O)Nc1ccc(C2=C3C=CC(N4CCCCC4)=[N+]3[B-](F)(F)n3c2ccc3-n2cc(-c3ccccc3)nn2)cc1 [BDCAC-9]
λmax Absorp. ([1]; BDCAC library, Table 3): 465 nm
λmax Emission ([1]; BDCAC library, Table 3): 579 nm
φ (quantum yield) ([2]; BDCAC library, Table 3): 1.1%

SMILES: CN(Cc1ccccc1)Cc1cn(-c2ccc3n2[B-](F)(F)[N+]2=C(N(C)Cc4ccccc4)C=CC2=C3c2ccc(N)cc2)nn1 [MK195-18]
λmax Absorp. ([1]; MK library, Table 5): 475 nm
λmax Emission ([1]; MK library, Table 5): 580 nm
φ (quantum yield) ([2]; MK library, Table 5): 0.52%

SMILES: CCCc1cn(-c2ccc3n2[B-](F)(F)[N+]2=C(N4CCCC4)C=CC2=C3c2ccc(N)cc2)nn1 [MK215-48]
λmax Absorp. ([1]; MK library, Table 5): 470 nm
λmax Emission ([1]; MK library, Table 5): 575 nm
φ (quantum yield) ([2]; MK library, Table 5): 0.29%

SMILES: CC(=O)Nc1ccc(C2=C3C=CC(N4CC(C)OC(C)C4)=[N+]3[B-](F)(F)n3c2ccc3-n2cc(CC(C)C)nn2)cc1 (stereo not drawn) [MKAC20-43]
λmax Abs. (nm) [1]: 467 nm
λmax Em. (nm) [1]: 586 nm
φ (%) ([2]; MKAC compound library): 1.55%

SMILES: CCCC(C)c1cn(-c2ccc3n2[B-](F)(F)[N+]2=C(N4CCCCC4)C=CC2=C3c2ccc(NC(C)=O)cc2)nn1 (stereo not drawn) [BDCAC-3]
λmax Absorp. ([1]; BDCAC library, Table 3): 467 nm
λmax Emission ([1]; BDCAC library, Table 3): 585 nm
φ (quantum yield) ([2]; BDCAC library, Table 3): 1.5%

SMILES: Nc1ccc(C2=C3C=CC(NCc4cc(F)cc(F)c4)=[N+]3[B-](F)(F)n3c2ccc3-n2cc(CO)nn2)cc1 [MK412-70]
λmax Absorp. ([1]; MK library, Table 5): 470 nm
λmax Emission ([1]; MK library, Table 5): 562 nm
φ (quantum yield) ([2]; MK library, Table 5): 1.89%

SMILES: Nc1ccc(C2=C3C=CC(N4CCCCC4)=[N+]3[B-](F)(F)n3c2ccc3-n2cc(COc3ccccc3)nn2)cc1 [BDC-17]
λmax Absorp. ([1]; BDC library, Table 2): 474 nm
λmax Emission ([1]; BDC library, Table 2): 591 nm
φ (quantum yield) ([2]; BDC library, Table 2): 0.11%

SMILES: CC(=O)Nc1ccc(C2=C3C=CC(N4CCCCC4)=[N+]3[B-](F)(F)n3c2ccc3-n2cc(-c3ccc(F)c(F)c3)nn2)cc1 [BDCAC-16]
λmax Absorp. ([1]; BDCAC library, Table 3): 462 nm
λmax Emission ([1]; BDCAC library, Table 3): 586 nm
φ (quantum yield) ([2]; BDCAC library, Table 3): 0.7%

SMILES: COc1cccc(-c2cn(-c3ccc4n3[B-](F)(F)[N+]3=C(N5CCCCC5)C=CC3=C4c3ccc(NC(C)=O)cc3)nn2)c1 [BDCAC-27]
λmax Absorp. ([1]; BDCAC library, Table 3): 464 nm
λmax Emission ([1]; BDCAC library, Table 3): 555 nm
φ (quantum yield) ([2]; BDCAC library, Table 3): 2.1%

SMILES: Nc1ccc(C2=C3C=CC(N4CCc5ccccc5C4)=[N+]3[B-](F)(F)n3c2ccc3-n2cc(C3CC3)nn2)cc1 [MK66-4]
λmax Absorp. ([1]; MK library, Table 5): 479 nm
λmax Emission ([1]; MK library, Table 5): 587 nm
φ (quantum yield) ([2]; MK library, Table 5): 0.12%

SMILES: CCCC(C)c1cn(-c2ccc3n2[B-](F)(F)[N+]2=C(N4CCc5ccccc5C4)C=CC2=C3c2ccc(NC(C)=O)cc2)nn1 (stereo not drawn) [MKAC66-3]
λmax Abs. (nm) [1]: 469 nm
λmax Em. (nm) [1]: 583 nm
φ (%) ([2]; MKAC compound library): 2.40%

SMILES: CCCCCC(O)c1cn(-c2ccc3n2[B-](F)(F)[N+]2=C(NCc4ccccc4C)C=CC2=C3c2ccc(N)cc2)nn1 (stereo not drawn) [MK101-69]
λmax Absorp. ([1]; MK library, Table 5): 475 nm
λmax Emission ([1]; MK library, Table 5): 563 nm
φ (quantum yield) ([2]; MK library, Table 5): 2.40%

Further lines, results first:

λmax Absorp. (nm) [1]: 465 nm
λmax Emission (nm) [1]: 563 nm
φ (%) ([2]; MKCA compound library): 20.00%
SMILES: CCCc1cn(-c2ccc3n2[B-](F)(F)[N+]2=C(NCc4cc(OC)ccc4OC)C=CC2=C3c2ccc(NC(=O)CCl)cc2)nn1 [MKCA181-48]

λmax Abs. (nm) [1]: 465 nm
λmax Em. (nm) [1]: 563 nm
φ (%) ([2]; MKAC compound library): 21.14%
SMILES: CC(=O)Nc1ccc(C2=C3C=CC(NCc4ccccc4C)=[N+]3[B-](F)(F)n3c2ccc3-n2cc(CC3CCCCC3)nn2)cc1 [MKAC101-8]

λmax Abs. (nm) [1]: 467 nm
λmax Em. (nm) [1]: 577 nm
φ (%) ([2]; MKAC compound library): 3.78%
SMILES: CC(=O)Nc1ccc(C2=C3C=CC(N(C)Cc4ccccc4)=[N+]3[B-](F)(F)n3c2ccc3-n2cc(CCc3ccccc3)nn2)cc1 [MKAC195-19]

λmax Abs. (nm) [1]: 465 nm
λmax Em. (nm) [1]: 561 nm
φ (%) ([2]; MKAC compound library): 11.03%
SMILES: CCCc1cn(-c2ccc3n2[B-](F)(F)[N+]2=C(NCc4cc(OC)ccc4OC)C=CC2=C3c2ccc(NC(C)=O)cc2)nn1 [MKAC181-48]

λmax Absorp. (nm) [1]: 462 nm
λmax Emission (nm) [1]: 570 nm
φ (%) ([2]; MKCA compound library): 3.35%
SMILES: O=C(CCl)Nc1ccc(C2=C3C=CC(N4CCCC4)=[N+]3[B-](F)(F)n3c2ccc3-n2cc(C3CC3)nn2)cc1 [MKCA215-4]

λmax Absorp. (nm) [1]: 466 nm
λmax Emission (nm) [1]: 585 nm
φ (%) ([2]; MKCA compound library): 2.54%
SMILES: CC1CN(C2=[N+]3C(=C(c4ccc(NC(=O)CCl)cc4)c4ccc(-n5cc(CN(C)Cc6ccccc6)nn5)n4[B-]3(F)F)C=C2)CC(C)O1 (stereo not drawn) [MKCA20-18]

λmax Abs. (nm) [1]: 465 nm
λmax Em. (nm) [1]: 574 nm
φ (%) ([2]; MKAC compound library): 6.53%
SMILES: CCCC(C)c1cn(-c2ccc3n2[B-](F)(F)[N+]2=C(N(C)Cc4ccccc4)C=CC2=C3c2ccc(NC(C)=O)cc2)nn1 (racemic) [MKAC195-3]
